Measured values: US20180256592A1, “ANTIBACTERIAL COMPOSITIONS” (priority 2015, published 2018)

Legend:
Type in all cases: cell-based
[1] = system: KP S 440 (OXA 181, SHV, TEM, CTX-M 1); experiment: MIC by agar dilution (MHA, CLSI)
Description: (§1) The antibacterial activity of combinations according to the invention was investigated against various bacterial strains. In a typical study, minimum inhibitory concentrations (MICs) were determined using Muller Hinton Agar (MHA) (BD, USA) according to Clinical and Laboratory Standards Institute (CLSI) recommendations, (Clinical and Laboratory Standards Institute (CLSI), Performance Standards for Antimicrobial Susceptibility Testing, 20th Informational Supplement, M 100-S20, Volume 30, No. 1, 2010). In short, the inocula were adjusted to deliver about […] colony forming units (CFU) per spot with a multipoint inoculator (Applied Quality Services, UK). The plates were pored with doubling concentration range of the test combinations according to invention containing MHA. The plates were inoculated and were incubated at 35° C. for 18 hours.

[2] = system: KP S 691 (OXA 181, SHV, TEM, CTX-M 1); experiment: MIC by agar dilution (MHA, CLSI)
Description: as §1

[3] = system: Klebsiella H 515 (KPC, class A); experiment: MIC by agar dilution (MHA, CLSI)
Description: as §1

[4] = system: Klebsiella H 520 (KPC, class A); experiment: MIC by agar dilution (MHA, CLSI)
Description: as §1

[5] = system: Klebsiella H 521 (KPC, class A); experiment: MIC by agar dilution (MHA, CLSI)
Description: as §1

[6] = system: Klebsiella H 523 (KPC, class A); experiment: MIC by agar dilution (MHA, CLSI)
Description: as §1

[7] = system: Klebsiella J 101 (TEM, SHV, OMP); experiment: MIC by agar dilution (MHA, CLSI)
Description: as §1

[8] = system: Klebsiella J 102 (TEM, SHV, OMP); experiment: MIC by agar dilution (MHA, CLSI)
Description: as §1

[9] = system: Klebsiella J 117 (SHV, OMP); experiment: MIC by agar dilution (MHA, CLSI)
Description: as §1

[10] = system: Klebsiella J 130 (SHV, OMP); experiment: MIC by agar dilution (MHA, CLSI)
Description: as §1

[11] = system: NCTC KP 13442 (OXA-48); experiment: MIC by agar dilution (MHA, CLSI)
Description: as §1

[12] = system: highly resistant gram negative bacterial strains; experiment: MIC by agar dilution (MHA, CLSI), whole strain panel of Table 1; settings: strains of Table 1; clavulanic acid 4 μg/ml
Description: as §1

[13] = KP S 691 (OXA 181, SHV, TEM, CTX-M 1), + clavulanic acid 4 μg/ml

C=CC1=C(C(=O)O)N2C(=O)[C@@H](NC(=O)/C(=N\O)c3csc(N)n3)[C@H]2SC1 [Cefdinir, cefdinir]
MIC in presence of Clavulanic acid (4 μg/ml) ([1]; + clavulanic acid 4 μg/ml): >32 µg/mL
MIC ([1]; drug alone): > 32 µg/mL
MIC [2]: > 32 µg/mL
MIC in presence of Clavulanic acid (4 μg/ml) [2, 13]: >32 µg/mL
MIC in presence of Clavulanic acid (4 μg/ml) ([3]; + clavulanic acid 4 μg/ml): >32 µg/mL
MIC ([3]; drug alone): > 32 µg/mL
MIC in presence of Clavulanic acid (4 μg/ml) ([4]; + clavulanic acid 4 μg/ml): >32 µg/mL
MIC ([4]; drug alone): > 32 µg/mL
MIC in presence of Clavulanic acid (4 μg/ml) ([5]; + clavulanic acid 4 μg/ml): >32 µg/mL
MIC ([5]; drug alone): > 32 µg/mL
MIC in presence of Clavulanic acid (4 μg/ml) ([6]; + clavulanic acid 4 μg/ml): >32 µg/mL
MIC ([6]; drug alone): > 32 µg/mL
MIC in presence of Clavulanic acid (4 μg/ml) ([7]; + clavulanic acid 4 μg/ml): >32 µg/mL
MIC ([7]; drug alone): > 32 µg/mL
MIC in presence of Clavulanic acid (4 μg/ml) ([8]; + clavulanic acid 4 μg/ml): >32 µg/mL
MIC ([8]; drug alone): > 32 µg/mL
MIC in presence of Clavulanic acid (4 μg/ml) ([9]; + clavulanic acid 4 μg/ml): 0.5 µg/mL
MIC ([9]; drug alone): > 32 µg/mL
MIC in presence of Clavulanic acid (4 μg/ml) ([10]; + clavulanic acid 4 μg/ml): 16 µg/mL
MIC ([10]; drug alone): > 32 µg/mL
MIC in presence of Clavulanic acid (4 μg/ml) ([11]; + clavulanic acid 4 μg/ml): 32 µg/mL
MIC ([11]; drug alone): 32 µg/mL

C=CC1=C(C(=O)O)N2C(=O)[C@@H](NC(=O)/C(=N\OCC(=O)O)c3csc(N)n3)[C@H]2SC1 [Cefixime, cefixime]
MIC in presence of Clavulanic acid (4 μg/ml) ([1]; + clavulanic acid 4 μg/ml): 16 µg/mL
MIC ([1]; drug alone): > 32 µg/mL
MIC [2]: > 32 µg/mL
MIC in presence of Clavulanic acid (4 μg/ml) [2, 13]: 16 µg/mL
MIC in presence of Clavulanic acid (4 μg/ml) ([3]; + clavulanic acid 4 μg/ml): 16 µg/mL
MIC ([3]; drug alone): > 32 µg/mL
MIC in presence of Clavulanic acid (4 μg/ml) ([4]; + clavulanic acid 4 μg/ml): 16 µg/mL
MIC ([4]; drug alone): > 32 µg/mL
MIC in presence of Clavulanic acid (4 μg/ml) ([5]; + clavulanic acid 4 μg/ml): 16 µg/mL
MIC ([5]; drug alone): > 32 µg/mL
MIC in presence of Clavulanic acid (4 μg/ml) ([6]; + clavulanic acid 4 μg/ml): 16 µg/mL
MIC ([6]; drug alone): > 32 µg/mL
MIC in presence of Clavulanic acid (4 μg/ml) ([7]; + clavulanic acid 4 μg/ml): >32 µg/mL
MIC ([7]; drug alone): > 32 µg/mL
MIC in presence of Clavulanic acid (4 μg/ml) ([8]; + clavulanic acid 4 μg/ml): >32 µg/mL
MIC ([8]; drug alone): > 32 µg/mL
MIC in presence of Clavulanic acid (4 μg/ml) ([9]; + clavulanic acid 4 μg/ml): 0.5 µg/mL
MIC ([9]; drug alone): > 32 µg/mL
MIC in presence of Clavulanic acid (4 μg/ml) ([10]; + clavulanic acid 4 μg/ml): 16 µg/mL
MIC ([10]; drug alone): > 32 µg/mL
MIC in presence of Clavulanic acid (4 μg/ml) ([11]; + clavulanic acid 4 μg/ml): 0.25 µg/mL
MIC ([11]; drug alone): 0.25 µg/mL

COCC1=C(C(=O)O)N2C(=O)[C@@H](NC(=O)/C(=N\OC)c3csc(N)n3)[C@H]2SC1 [Cefpodoxime, cefpodoxime]
MIC of Cefpodoxime in presence of Clavulanic acid (4 μg/ml) ([1]; + clavulanic acid 4 μg/ml): >32 μ/ml
MIC of Cefpodoxime, Control (Cefpodoxime alone) ([1]; drug alone): >32 μ/ml
MIC of Cefpodoxime in presence of Clavulanic acid (4 μg/ml) [2, 13]: >32 μ/ml
MIC of Cefpodoxime, Control (Cefpodoxime alone) ([2]; KP S 691 (OXA 181, SHV, TEM, CTX-M 1), drug alone): >32 μ/ml
MIC of Cefpodoxime in presence of Clavulanic acid (4 μg/ml) ([3]; + clavulanic acid 4 μg/ml): >32 μ/ml
MIC of Cefpodoxime, Control (Cefpodoxime alone) ([3]; drug alone): >32 μ/ml
MIC of Cefpodoxime in presence of Clavulanic acid (4 μg/ml) ([4]; + clavulanic acid 4 μg/ml): >32 μ/ml
MIC of Cefpodoxime, Control (Cefpodoxime alone) ([4]; drug alone): >32 μ/ml
MIC of Cefpodoxime in presence of Clavulanic acid (4 μg/ml) ([5]; + clavulanic acid 4 μg/ml): >32 μ/ml
MIC of Cefpodoxime, Control (Cefpodoxime alone) ([5]; drug alone): >32 μ/ml
MIC of Cefpodoxime in presence of Clavulanic acid (4 μg/ml) ([6]; + clavulanic acid 4 μg/ml): >32 μ/ml
MIC of Cefpodoxime, Control (Cefpodoxime alone) ([6]; drug alone): >32 μ/ml
MIC of Cefpodoxime in presence of Clavulanic acid (4 μg/ml) ([7]; + clavulanic acid 4 μg/ml): >32 μ/ml
MIC of Cefpodoxime, Control (Cefpodoxime alone) ([7]; drug alone): >32 μ/ml
MIC of Cefpodoxime in presence of Clavulanic acid (4 μg/ml) ([8]; + clavulanic acid 4 μg/ml): >32 μ/ml
MIC of Cefpodoxime, Control (Cefpodoxime alone) ([8]; drug alone): >32 μ/ml
MIC of Cefpodoxime in presence of Clavulanic acid (4 μg/ml) ([9]; + clavulanic acid 4 μg/ml): 4 μ/ml
MIC of Cefpodoxime, Control (Cefpodoxime alone) ([9]; drug alone): >32 μ/ml
MIC of Cefpodoxime in presence of Clavulanic acid (4 μg/ml) ([10]; + clavulanic acid 4 μg/ml): 32 μ/ml
MIC of Cefpodoxime, Control (Cefpodoxime alone) ([10]; drug alone): >32 μ/ml
MIC of Cefpodoxime in presence of Clavulanic acid (4 μg/ml) ([11]; + clavulanic acid 4 μg/ml): 1 μ/ml
MIC of Cefpodoxime, Control (Cefpodoxime alone) ([11]; drug alone): 4 μ/ml

Nc1nc(/C(=C/CC(=O)O)C(=O)N[C@@H]2C(=O)N3C(C(=O)O)=CCS[C@H]23)cs1 [Ceftibuten, ceftibuten]
MIC in presence of Clavulanic acid (4 μg/ml) ([1]; + clavulanic acid 4 μg/ml): 2 µg/mL
MIC in presence of Sulbactam (4 μg/ml) ([1]; + sulbactam 4 μg/ml): 4 µg/mL
MIC in presence of Tazobactam (4 μg/ml) ([1]; + tazobactam 4 μg/ml): 4 µg/mL
MIC ([1]; drug alone): 16 µg/mL
MIC [2]: 8 µg/mL
MIC in presence of Clavulanic acid (4 μg/ml) [2, 13]: 1 µg/mL
MIC in presence of Sulbactam (4 μg/ml) ([2]; KP S 691 (OXA 181, SHV, TEM, CTX-M 1), + sulbactam 4 μg/ml): 2 µg/mL
MIC in presence of Tazobactam (4 μg/ml) ([2]; KP S 691 (OXA 181, SHV, TEM, CTX-M 1), + tazobactam 4 μg/ml): 2 µg/mL
MIC in presence of Clavulanic acid (4 μg/ml) ([3]; + clavulanic acid 4 μg/ml): 4 µg/mL
MIC in presence of Sulbactam (4 μg/ml) ([3]; + sulbactam 4 μg/ml): 8 µg/mL
MIC in presence of Tazobactam (4 μg/ml) ([3]; + tazobactam 4 μg/ml): 8 µg/mL
MIC ([3]; drug alone): 16 µg/mL
MIC in presence of Clavulanic acid (4 μg/ml) ([4]; + clavulanic acid 4 μg/ml): 4 µg/mL
MIC in presence of Sulbactam (4 μg/ml) ([4]; + sulbactam 4 μg/ml): 8 µg/mL
MIC in presence of Tazobactam (4 μg/ml) ([4]; + tazobactam 4 μg/ml): 16 µg/mL
MIC ([4]; drug alone): 32 µg/mL
MIC in presence of Clavulanic acid (4 μg/ml) ([5]; + clavulanic acid 4 μg/ml): 4 µg/mL
MIC in presence of Sulbactam (4 μg/ml) ([5]; + sulbactam 4 μg/ml): 16 µg/mL
MIC in presence of Tazobactam (4 μg/ml) ([5]; + tazobactam 4 μg/ml): 16 µg/mL
MIC ([5]; drug alone): 32 µg/mL
MIC in presence of Clavulanic acid (4 μg/ml) ([6]; + clavulanic acid 4 μg/ml): 4 µg/mL
MIC in presence of Sulbactam (4 μg/ml) ([6]; + sulbactam 4 μg/ml): 4 µg/mL
MIC in presence of Tazobactam (4 μg/ml) ([6]; + tazobactam 4 μg/ml): 8 µg/mL
MIC ([6]; drug alone): 16 µg/mL
MIC in presence of Clavulanic acid (4 μg/ml) ([7]; + clavulanic acid 4 μg/ml): 8 µg/mL
MIC in presence of Sulbactam (4 μg/ml) ([7]; + sulbactam 4 μg/ml): 32 µg/mL
MIC in presence of Tazobactam (4 μg/ml) ([7]; + tazobactam 4 μg/ml): 32 µg/mL
MIC ([7]; drug alone): > 32 µg/mL
MIC in presence of Clavulanic acid (4 μg/ml) ([8]; + clavulanic acid 4 μg/ml): 8 µg/mL
MIC in presence of Sulbactam (4 μg/ml) ([8]; + sulbactam 4 μg/ml): 32 µg/mL
MIC in presence of Tazobactam (4 μg/ml) ([8]; + tazobactam 4 μg/ml): 32 µg/mL
MIC ([8]; drug alone): 32 µg/mL
MIC in presence of Clavulanic acid (4 μg/ml) ([9]; + clavulanic acid 4 μg/ml): 0.12 µg/mL
MIC in presence of Sulbactam (4 μg/ml) ([9]; + sulbactam 4 μg/ml): 32 µg/mL
MIC in presence of Tazobactam (4 μg/ml) ([9]; + tazobactam 4 μg/ml): 32 µg/mL
MIC ([9]; drug alone): 32 µg/mL
MIC in presence of Clavulanic acid (4 μg/ml) ([10]; + clavulanic acid 4 μg/ml): 4 µg/mL
MIC in presence of Sulbactam (4 μg/ml) ([10]; + sulbactam 4 μg/ml): >32 µg/mL
MIC in presence of Tazobactam (4 μg/ml) ([10]; + tazobactam 4 μg/ml): >32 µg/mL
MIC ([10]; drug alone): > 32 µg/mL
MIC in presence of Clavulanic acid (4 μg/ml) ([11]; + clavulanic acid 4 μg/ml): 0.12 µg/mL
MIC in presence of Sulbactam (4 μg/ml) ([11]; + sulbactam 4 μg/ml): 0.25 µg/mL
MIC in presence of Tazobactam (4 μg/ml) ([11]; + tazobactam 4 μg/ml): 0.25 µg/mL
MIC ([11]; drug alone): 0.25 µg/mL
change of MIC values of ceftibuten in the presence of clavulanic acid [12]: significantly reduced
